Where a name gives a salt, the structure may show the parent alone.
Target: T1, hS1P1 receptor (Homo sapiens, UniProt P21453)
T1 construct: host or cells: U2OS
Assay: hS1P1 receptor internalization assay (cell imaging-based, hS1P1-eGFP U2OS cells)
Conditions: U2OS cell line expressing hS1P1-eGFP, compounds incubated at 37° C. for one hour; for Emax: 1 h, efficacy (Max), read-out: hS1P1 Receptor Internalization (biolimaging) Max (%); for EC50: GFP-containing endosomes per cell (ArrayScan), read-out: hS1P1 Receptor Internalization (bioimaging) EC50 IP
Description: The activity of compounds of the invention was determined by a cell imaging-based assay measuring the degree of hS1P1 receptor internalization and a Ca^2+ mobilization assay measuring the level of S1P receptor activation. The receptor internalization assay was employed to determine the potency and efficacy of compounds on hS1P1 receptor, while Ca^2+ mobilization assay was used to determine selectivity among different S1P receptors and activity on S1P receptors from species such as rat, dog, and cyno. The hS1P1 receptor internalization assay was performed using a U2OS cell line expressing hS1P1-eGFP chimeric protein (Thermo Scientific, Soeborg, Denmark). Upon compound treatment, the hS1P1 receptor was internalized in cytoplasma and formed GFP-containing-endosomes. This event was detected by an automated microscope, ArrayScan (Thermo Scientific Cellomics, Pittsburg), and the degree of receptor internalization is quantitated by counting green fluorescent GFP-containing endosomes per cell. In this assay, hS1P1-eGFP expressing U2OS cells were starved in serum free media for two hours prior to compound treatment. Then compounds were incubated with the starved cells at 37° C. for one hour. Subsequently, compound-treated cells were fixed using 4% formaldehyde, and the nuclei were stained using Hoechst. Then the cells were imaged in ArrayScan. The potency and efficacy of the compounds were determined by plotting the number of green fluorescent GFP-containing endosomes per cell against corresponding compound concentration.

T1 sequence (P21453 whole entry): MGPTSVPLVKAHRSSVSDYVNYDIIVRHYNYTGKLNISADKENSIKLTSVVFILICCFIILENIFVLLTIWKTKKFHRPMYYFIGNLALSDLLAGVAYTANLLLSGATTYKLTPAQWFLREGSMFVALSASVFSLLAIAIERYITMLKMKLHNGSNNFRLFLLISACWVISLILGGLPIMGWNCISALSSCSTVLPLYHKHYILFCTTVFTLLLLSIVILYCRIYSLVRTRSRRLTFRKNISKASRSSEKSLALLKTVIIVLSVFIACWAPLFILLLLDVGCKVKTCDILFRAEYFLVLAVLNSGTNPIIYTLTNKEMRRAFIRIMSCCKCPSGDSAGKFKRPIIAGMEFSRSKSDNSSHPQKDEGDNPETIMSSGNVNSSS

Row | SMILES | Emax [%] | EC50 [nM]
1 | CS(=O)(=O)NCCc1ccc(-c2nc3ccc(C4(c5ccccc5)CC4)nc3s2)c(F)c1 [Example 61, N-(2-(3-fluoro-4-(5-(1-phenylcyclopropyl)[1,3]thiazolo[5,4-b]pyridin-2-yl)phenyl)ethyl)methanesulfonamide] | 491 | 2490
2 | O=C(O)C1CN(Cc2ccc(-c3nc4ccc(C5(c6ccccn6)CC5)cc4s3)c(F)c2)C1 [Example 62, 1-((3-fluoro-4-(6-(1-(pyridine-2-yl)cyclopropyl)benzo[d]thiazol-2-yl)-phenyl)methyl)azetidine-3-carboxylic acid] | 98 | 3710
3 | Cc1cc(-c2nc3ccc(C4(c5ccccc5)CC4)nc3s2)cc(C)c1OC[C@H](O)CO [Example 67, (R)-3-(2,6-dimethyl-4-(5-(1-phenylcyclopropyl)thiazolo[5,4-b]pyridin-2-yl)phenoxy)propane-1,2-diol] | 125 | 70.4
4 | O=C(O)[C@@H]1C[C@@H](Oc2ccc(-c3nc4ccc(C5(c6ccccc6)CC5)nc4s3)cc2)CN1 [Example 72, (2S,4R)-4-(4-(5-(1-phenylcyclopropyl)thiazolo[5,4-b]pyridin-2-yl)phenoxy)pyrrolidine-2-carboxylic acid] | 133 | 45.1
5 | O=C(O)CC1CN(Cc2ccc(-c3nc4ccc(C5(c6ccccc6)CC5)nc4s3)c(F)c2)C1 [Example 79, 2-(1-(3-fluoro-4-(5-(1-phenylcyclopropyl)thiazolo[5,4-b]pyridin-2-yl)-benzyl)azetidin-3-yl)acetic acid] | 150 | 38.4
6 | c1ccc(C2(c3ccc4nc(-c5ccc6c(c5)CCNC6)sc4n3)CC2)cc1 [Example 80, 5-(1-phenylcyclopropyl)-2-(1,2,3,4-tetrahydroisoquinolin-6-yl)thiazolo-[5,4-b]pyridine] | 148 | 563
7 | O=C(O)CN1CCc2cc(-c3nc4ccc(C5(c6ccccc6)CC5)nc4s3)ccc2C1 [Example 82, 2-(6-(5-(1-phenylcyclopropyl)thiazolo[5,4-b]pyridin-2-yl)-3,4-dihydroisoquinolin-2(1H)-yl)acetic acid] | 106 | 46.1
8 | O=C(O)COCc1ccc(-c2nc3ccc(C4(c5ccccc5)CC4)nc3s2)c(F)c1 [Example 85, 2-(3-fluoro-4-(5-(1-phenylcyclopropyl)thiazolo[5,4-b]pyridin-2-yl)benzyloxy)acetic acid] | 88 | 1270
9 | C[C@H](CC(=O)O)NCc1ccc(-c2nc3ccc(C4(c5ccccc5)CC4)nc3s2)c(F)c1 [Example 91, (R)-3-(3-fluoro-4-(5-(1-phenylcyclopropyl)thiazolo[5,4-b]pyridin-2-yl)benzylamino)butanoic acid hydrochloride] | 131 | 32.7
10 | O=C(O)c1cn(Cc2ccc(-c3nc4ccc(C5(c6ccccc6)CC5)nc4s3)c(F)c2)cn1 [Example 96, 1-(3-fluoro-4-(5-(1-phenylcyclopropyl)thiazolo[5,4-b]pyridin-2-yl)benzyl)-1H-imidazole-4-carboxylic acid hydrochloride] | 105 | 10.9
11 | O=C(O)c1cnn(Cc2ccc(-c3nc4ccc(C5(c6ccccc6)CC5)nc4s3)c(F)c2)c1 [Example 98, 1-(3-fluoro-4-(5-(1-phenylcyclopropyl)thiazolo[5,4-b]pyridin-2-yl)benzyl)-1H-pyrazole-4-carboxylic acid hydrochloride] | 93 | 44.9
12 | O=C(c1ccc(-c2nc3ccc(C4(c5ccccc5)CC4)nc3s2)c(F)c1)N1CCC1 [Example 105, 2-(4-(1-azetidinylcarbonyl)-2-fluorophenyl)-5-(1-phenylcyclopropyl)-[1,3]thiazolo[5,4-b]pyridine] | 63 | 3330
13 | CN(CCO)C(=O)c1ccc(-c2nc3ccc(C4(c5ccccc5)CC4)nc3s2)c(F)c1 [Example 109, 3-fluoro-N-(2-hydroxyethyl)-N-methyl-4-(5-(1-phenylcyclopropyl)-[1,3]thiazolo[5,4-b]pyridin-2-yl)benzamide] | 41 | 2350

Source: patent US7842685B2, “S1P1 receptor agonists and use thereof” (Amgen Inc., priority 2008, dated 2010)
